According to patent publication US20040171688A1, “Carboxylic acids and derivatives thereof and pharmaceutical compositions containing them” (priority 1997, published 2004):
Entries after “also recorded” stand apart in the source; their conditions may differ.

Molecular target: T1, HNF-4α (Rattus norvegicus, UniProt P22449)
T1 sequence (P22449 1-464 isoform P22449-2): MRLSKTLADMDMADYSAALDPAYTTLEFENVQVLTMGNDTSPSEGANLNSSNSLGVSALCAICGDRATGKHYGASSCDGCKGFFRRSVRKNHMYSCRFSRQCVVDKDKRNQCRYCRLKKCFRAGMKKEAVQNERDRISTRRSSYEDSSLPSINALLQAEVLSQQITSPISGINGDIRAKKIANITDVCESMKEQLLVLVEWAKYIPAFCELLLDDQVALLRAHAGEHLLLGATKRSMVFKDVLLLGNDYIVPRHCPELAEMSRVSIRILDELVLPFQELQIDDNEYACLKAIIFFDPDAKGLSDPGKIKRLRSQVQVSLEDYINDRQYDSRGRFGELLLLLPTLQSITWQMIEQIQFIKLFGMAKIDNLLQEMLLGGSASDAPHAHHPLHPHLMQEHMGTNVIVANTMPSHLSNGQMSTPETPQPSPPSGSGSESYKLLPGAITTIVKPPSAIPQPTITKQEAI
Test: Gel mobility shift assay: His-HNF-4α binding to C3P apo CIII promoter oligonucleotide
Assay type: biochemical
Parameters: The full length HNF-4α1 cDNA cloned into 6His-pET11d vector was expressed in E.coli BL21 (DE3)plysS; 6His; made in house; host or cells: E. coli BL21 (DE3)plysS
Conditions: for effect on His-HNF-4α binding to C3P oligonucleotide: gel mobility shift, 10 μM acyl-CoA (FIG. 2)
Protocol: a. His-HNF-4I (14 ng) binding to C3P in the absence (lane 1) or presence of 10 μM each of myristoyl(14:0)-CoA (lane 2) or palmitoyl(16:0)-CoA (lane 3).
b. His-HNF-4I (20 ng) binding to C3P in the absence (lane 1) or presence of 10 μM each of stearoyl(18:0)-CoA (lane 2) or linolenoyl(18:3, w-3)-CoA (lane 3).
c. Activation of His-HNF-4I (14 ng) binding to C3P by increasing concentrations of myristoyl(14:0)-CoA. The gel section containing radiolabeled C3P bound to His-HNF-4I dimer is shown.
His-HNF-4α and acyl-CoA (as indicated) were preincubated for 30 min at 22° C. in 11 mM Hepes (pH 7.9) containing 50 mM KCl, 1 mM dithiothreitol. 2.5 mM MgCl2, 10% glycerol, 1 μg of poly(dI-dC) in a final volume of 20 μl. ^32P-labeled oligonucleotide (0.1 ng) consisting of the human C3P apo CIII promoter sequence,(−87/−66)^6 was then added, and incubation was continued for an additional 15 min. Protein-DNA complexes were resolved by 5% nondenaturing polyacrylamide gel in 0.6×TBE and quantitated by PhosphorImager analysis.
HNF-4α activity as a function of binding of long chain acyl-CoAs was evaluated by studying the binding of HNF-4α to its cognate C3P element of the apo CIII promoter sequence (−87/−66)^6 in the presence or absence of added acyl-CoAs of variable chain length, degree of saturation, and degree of substitution. Binding was verified by using a gel mobility shift assay. […] Activation was concentration dependent and maximal in the presence of myristoyl(14:0)-CoA added within a concentration range required for its binding to HNF-4α.

effect on His-HNF-4α binding to C3P oligonucleotide	direct effect on HNF-4α (summary) (summary statement of Example 4)	Compound
potent inhibition	antagonistic effect	CCCCCCCCCCCCCCCCCC(=O)SCCNC(=O)CCNC(=O)[C@H](O)C(C)(C)COP(=O)(O)OP(=O)(O)OC[C@H]1O[C@@H](n2cnc3c(N)ncnc32)[C@H](O)[C@@H]1OP(=O)(O)O [Stearoyl(18:0)-CoA]
Activation; also recorded: maximal	–	CCCCCCCCCCCCCC(=O)SCCNC(=O)CCNC(=O)[C@H](O)C(C)(C)COP(=O)(O)OP(=O)(O)OC[C@H]1O[C@@H](n2cnc3c(N)ncnc32)[C@H](O)[C@@H]1OP(=O)(O)O [myristoyl(14:0)-CoA, reference compound]
